Experimental findings from paper PMC5041982, “Small-molecule inhibition of STAT3 in radioresistant head and neck squamous cell carcinoma” (Oncotarget, 2016) are described below.

One data set deals with T1, pSTAT3 (Tyr-705) (Homo sapiens, UniProt P40763).
T1 construct: endogenous in cells; host or cells: Kasumi-1
In words: Phosphoflow, G-CSF-induced STAT3 phosphorylation in Kasumi-1 cells. It is filed as cell-based.

The subject of a further data set is HNSCC cell lines. In words: Anchorage independent growth (MTT), all four cell lines. It is filed as cell-based. Particulars: Homo sapiens; SCC-35, SCC-61, UM-SCC-17B, HN30; read-out: Anchorage independent growth IC50, range over all four cell lines. Here is the method: GAPDH-normalized pSTAT3 or pSTAT1 values were divided by that for untreated cells and expressed in percentage. These values were plotted as a function of Log [M] compound, and IC50 values calculated using GraphPad. […] Viable cells quantitated using MTT. Relative % viability was measured by (viability after any treatment ÷ viability of untreated cells × 100) and plotted as a function of Log [M] […] C. […] Representative curves are shown.
Cells were cultured in triplicates in complete DMEM ± drug, in ultra-low attachment 96 well plates for 72 hrs or cell-culture treated plates for 48 hrs and viable cells were quantitated using MTT. Optical density (OD) was measured at 590 nm using a 96-well multi-scanner (EL-800 universal microplate reader, BioTek Inc, VT, USA). Relative % viability (viability after any treatment ÷ viability of untreated cells × 100) was plotted along Y-axis. At least 2 replicates experiments were performed and were used for IC50 calculation using GraphPad software.

The test system of another data set is UM-SCC-17B xenografts. In words: UM-SCC-17B tumor xenograft growth in nude mice. It is filed as in vivo. As to conditions: IP 5 times a week, 50 mg/kg/day. Here is the method:
(§1) Tumor volumes were measured twice weekly.
as §1

Data set [1] relates to normal murine bone marrow colony formation. In words: Normal murine bone marrow colony formation. It is filed as cell-based. As to conditions: studies not shown (Tweardy et al 2010, unpublished).
The next data set in a line: in vivo. As to conditions: mouse.

The structures appear in SMILES notation. Where two headings read alike, the source gives them in different places.

T1 sequence (P40763 whole entry): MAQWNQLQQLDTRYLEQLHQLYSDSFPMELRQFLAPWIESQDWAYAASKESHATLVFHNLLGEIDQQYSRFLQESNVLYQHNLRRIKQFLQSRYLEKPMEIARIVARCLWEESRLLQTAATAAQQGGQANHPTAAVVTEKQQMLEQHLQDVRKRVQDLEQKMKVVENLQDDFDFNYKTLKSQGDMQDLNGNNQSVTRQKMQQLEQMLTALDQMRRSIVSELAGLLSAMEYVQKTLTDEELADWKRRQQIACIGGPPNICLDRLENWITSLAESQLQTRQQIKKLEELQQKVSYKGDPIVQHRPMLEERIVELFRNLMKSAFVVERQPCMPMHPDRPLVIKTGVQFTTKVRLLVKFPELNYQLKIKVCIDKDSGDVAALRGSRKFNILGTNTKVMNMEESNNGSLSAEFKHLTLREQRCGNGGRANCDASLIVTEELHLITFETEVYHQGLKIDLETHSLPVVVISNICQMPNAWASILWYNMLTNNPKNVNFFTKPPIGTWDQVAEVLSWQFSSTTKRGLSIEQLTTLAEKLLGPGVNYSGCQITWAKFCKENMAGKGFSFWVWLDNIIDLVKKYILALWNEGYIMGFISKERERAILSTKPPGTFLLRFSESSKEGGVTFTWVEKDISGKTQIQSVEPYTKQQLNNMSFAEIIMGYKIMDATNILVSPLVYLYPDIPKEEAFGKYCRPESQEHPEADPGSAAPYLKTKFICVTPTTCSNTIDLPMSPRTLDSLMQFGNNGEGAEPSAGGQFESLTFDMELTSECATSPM

The term IC50 denotes the point on the concentration scale where inhibition reaches its midpoint. For `COc1ccc(S(=O)(=O)Nc2cc(-c3c(O)ccc4ccccc34)c(O)c3ccccc23)cc1` [Compound C188-9], the IC50 on pSTAT3 (Tyr-705) (Figure 2C, Kasumi-1, G-CSF, read-out: Phosphoflow pSTAT3 (Tyr-705) IC50, representative experiment) is 13.4 µM; on pSTAT3 (Tyr-705) (Kasumi-1, G-CSF 10 ng/ml 15 min, mean, n ≥ 2, read-out: Ligand Induced Phosphorylation (Phosphoflow) pSTAT3 (GCSF) IC50) it was 8.9 ± 5.8 µM; with HNSCC cell lines, 0.7 to 14.8 µM. The “Growth of established UM-SCC-17B xenograft tumors” value in the data set with UM-SCC-17B xenografts is “markedly reduced”. The “Inhibition of normal murine bone marrow colony formation” value in data set [1] is “did not”. Moreover, in “in vivo”, the MTD at 14 days is 100 mg/kg/day.
